The compounds below were run against T1, Substance-P receptor (Homo sapiens, UniProt P25103). Conditions: CHO.
T1 sequence (P25103 whole entry): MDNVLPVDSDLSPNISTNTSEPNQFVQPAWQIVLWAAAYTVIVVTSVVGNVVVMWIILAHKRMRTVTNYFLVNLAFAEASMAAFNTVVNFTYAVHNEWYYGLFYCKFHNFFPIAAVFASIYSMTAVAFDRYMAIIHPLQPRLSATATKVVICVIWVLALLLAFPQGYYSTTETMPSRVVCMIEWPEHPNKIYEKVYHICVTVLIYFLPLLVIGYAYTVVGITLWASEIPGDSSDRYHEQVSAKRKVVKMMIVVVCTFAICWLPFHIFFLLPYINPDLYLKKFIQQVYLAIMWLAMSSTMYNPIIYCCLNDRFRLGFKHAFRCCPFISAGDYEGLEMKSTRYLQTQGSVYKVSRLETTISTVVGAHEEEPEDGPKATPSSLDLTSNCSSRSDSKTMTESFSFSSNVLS
Description: Dissociation constant towards Neurokinin -1(NK-1) receptor of human by using [125I]- Tyr8 substance P as a radioligand in CHO cells

Row | pKa | Compound
1 | 8.3 | FC(F)(F)c1cc(CO[C@H]2CCCN[C@H]2c2ccccc2)cc(C(F)(F)F)c1

These compounds were tested against T1, Substance-P receptor (assay: Binding affinity towards Neurokinin -1(NK-1) receptor of human by using [125I]- Tyr8 substance P as a radioligand in CHO cells). Conditions: not given.
Assay type: cell-based

Row | IC50 | Compound
2 | 34 nM | O=C(NCc1cccnc1)NC[C@H]1CCC[C@H](OCc2cc(C(F)(F)F)cc(C(F)(F)F)c2)[C@@H]1c1ccccc1
3 | ≥ 157 nM | NC(=O)C[C@@H]1CCC[C@@H](OCc2cc(C(F)(F)F)cc(C(F)(F)F)c2)[C@H]1c1ccccc1
4 | 3.7 nM | O=C(C[C@H]1CCC[C@H](OCc2cc(C(F)(F)F)cc(C(F)(F)F)c2)[C@@H]1c1ccccc1)NCc1cccnc1
5 | 881 nM | FC(F)(F)c1cc(CO[C@H]2CCCO[C@H]2c2ccccc2)cc(C(F)(F)F)c1
6 | 6.7 nM | NC(=O)NC[C@H]1CCC[C@H](OCc2cc(C(F)(F)F)cc(C(F)(F)F)c2)[C@@H]1c1ccccc1
7 | 14 nM | CN1CCC[C@H](OCc2cc(C(F)(F)F)cc(C(F)(F)F)c2)[C@@H]1c1ccccc1

The remaining lines, values behind:

Row | Compound | IC50
8 | NC(=O)C[C@H]1CCC[C@H](OCc2cc(C(F)(F)F)cc(C(F)(F)F)c2)[C@@H]1c1ccccc1 (stereo in doubt; 22) | 1.5 nM
9 | OC(COCc1cc(C(F)(F)F)cc(C(F)(F)F)c1)C(c1ccccc1)c1ccccc1 (configuration not stated) | 17 nM
10 | FC(F)(F)c1cc(CO[C@H]2CCCC[C@H]2c2ccccc2)cc(C(F)(F)F)c1 | 2630 nM
11 | NC(=O)C[C@H]1CCC[C@H](OCc2cc(C(F)(F)F)cc(C(F)(F)F)c2)[C@@H]1c1ccccc1 (stereo in doubt; 19a) | 3 nM
12 | O=C(C[C@H]1CCC[C@H](OCc2cc(C(F)(F)F)cc(C(F)(F)F)c2)[C@@H]1c1ccccc1)NCc1ccncc1 | 7 nM
